From patent US20130011361A1, “PYRAZOLE DERIVATIVES WHICH MODULATE STEAROYL-COA DESATURASE” (XENON PHARMACEUTICALS INC., priority 2009, published 2013)

What was measured:
[1] = target: T1, stearoyl-CoA desaturase (SCD1) (Mus musculus, UniProt P13516); experiment: SCD inhibition assay using mouse liver microsomes (release of 3H2O from [9,10-3H]stearoyl-CoA); type: biochemical; conditions: 15 min incubation, 25° C., read-out: Microsomal IC50
T1 construct: Reactions are started by adding 50 μL of microsomes (1.25 mg/mL); from tissue; host or cells: liver microsomes of male ICR outbred mice on a high-carbohydrate, low-fat diet
T1 sequence (P13516 1-355): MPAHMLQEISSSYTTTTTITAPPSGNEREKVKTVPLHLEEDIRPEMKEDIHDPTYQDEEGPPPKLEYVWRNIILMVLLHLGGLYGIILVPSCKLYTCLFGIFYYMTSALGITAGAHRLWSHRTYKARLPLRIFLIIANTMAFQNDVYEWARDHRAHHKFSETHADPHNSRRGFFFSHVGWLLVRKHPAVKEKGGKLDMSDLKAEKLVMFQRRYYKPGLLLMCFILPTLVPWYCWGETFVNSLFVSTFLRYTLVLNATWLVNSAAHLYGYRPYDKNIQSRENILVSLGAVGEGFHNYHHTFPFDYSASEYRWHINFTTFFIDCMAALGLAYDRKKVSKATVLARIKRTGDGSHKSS
Procedure: Measuring Stearoyl-CoA Desaturase Inhibition Activity of a Test Compound Using Mouse Liver Microsomes
Livers are immediately rinsed with cold 0.9% NaCl solution, weighed and minced with scissors. All procedures are performed at 4° C. unless specified otherwise. Livers are homogenized in a solution (1/3 w/v) containing 0.25 M sucrose, 62 mM potassium phosphate buffer (pH 7.0), 0.15 M KCl, 15 mM N-acetyleysteine, 5 mM MgCl2, and 0.1 mM EDTA using 4 strokes of a Potter-Elvehjem tissue homogenizer. The homogenate is centrifuged at 10,400×g for 20 min to eliminate mitochondria and cellular debris. The supernatant is filtered through a 3-layer cheesecloth and centrifuged at 105,000×g for 60 min. The microsomal pellet is gently resuspended in the same homogenization solution with a small glass/teflon homogenizer and stored at ˜70° C. The absence of mitochondrial contamination is enzymatically assessed. The protein concentration is measured using bovine serum albumin as the standard.
Desaturase activity is measured as the release of ^3H2O from [9,10-^3H]stearoyl-CoA. Reactions per assay point conditions are as follows: 2 μL 1.5 mM stearoyl-CoA, 0.25 μL 1 mCi/mL ^3H stearoyl CoA, 10 μL 20 mM NADH, 36.75 μL 0.1 M PK buffer (K2HPO4/NaH2PO4, pH 7.2). The test compound or control solution is added in a 1 μL volume. […] The plates are mixed and after 15 min incubation on a heating block (25° C.), the reactions are stopped by the addition of 10 μL 60% PCA. An aliquot of 100 μL is then transferred to a filter plate pretreated with charcoal and the plate centrifuged at 4000 rpm for 1 minute. The flow through containing the ^3H2O released by the SCD1 desaturation reaction is added to scintillation fluid and the radioactivity measured in a Packard TopCount. The data is analysed to identify the IC50 for test compounds and reference compounds.
The activity was defined in terms of % SCD enzyme activity remaining at the desired concentration of the test compound or as the IC50 concentration.

| Compound | IC50 [1] | melting point |
| --- | --- | --- |
| O=C(NCc1cccnc1)c1cc(-n2cnn(Cc3ccc(F)cc3)c2=O)n[nH]1 [Example 2, 3-(1-(4-fluorobenzyl)-5-oxo-1H-1,2,4-triazol-4(5H)-yl)-N-(pyridin-3-ylmethyl)-1H-pyrazole-3-carboxamide] | 7 nM | 235 to 236 °C |
| O=C(NCc1ccccn1)c1cc(N2CCN(Cc3ccc(F)cc3)C2=O)n[nH]1 [Example 3, 3-(3-(4-fluorobenzyl)-2-oxoimidazolidin-1-yl)-N-(pyridin-2-ylmethyl)-1H-pyrazole-5-carboxamide] | 45 nM | 235 to 237 °C |
| O=C(NCc1cccnc1)c1cc(N2CCN(Cc3ccc(F)cc3)C2=O)n[nH]1 [Example 6, 3-(3-(4-fluorobenzyl)-2-oxoimidazolidin-1-yl)-N-(pyridin-3-ylmethyl)-1H-pyrazole-5-carboxamide] | 3 nM | 251 to 253 °C |
| Cn1cc(CNC(=O)c2cc(N3CCN(Cc4ccc(F)cc4)C3=O)n[nH]2)cn1 [Example 8.1, 3-(3-(4-fluorobenzyl)-2-oxoimidazolidin-1-yl)-N-((1-methyl-1H-pyrazol-4-yl)methyl)-1H-pyrazole-5-carboxamide] | 122 nM | 244 to 245 °C |
| NC(=O)c1cc(N2CCN(Cc3ccc(F)cc3)C2=O)n[nH]1 [Example 8.4, 3-(3-(4-fluorobenzyl)-2-oxoimidazolidin-1-yl)-1H-pyrazole-5-carboxamide] | 368 nM | 256 to 258 °C |
| NC(=O)c1cc(-n2cnn(Cc3ccc(F)cc3)c2=O)n[nH]1 [Example 8.5, 3-(1-(4-fluorobenzyl)-5-oxo-1H-1,2,4-triazol-4(5H)-yl)-1H-pyrazole-5-carboxamide] | 488 nM | > 270 °C |
| O=C(NCc1cocn1)c1cc(-n2cnn(Cc3ccc(F)cc3)c2=O)n[nH]1 [Example 8.6, 3-(1-(4-fluorobenzyl)-5-oxo-1H-1,2,4-triazol-4(5H)-yl)-N-(oxazol-4-ylmethyl)-1H-pyrazole-5-carboxamide] | 165 nM | 267 to 268 °C |

More lines, in order of falling IC50 [1], values ahead:

| IC50 [1] | melting point | Compound |
| --- | --- | --- |
| 385 nM | 268 to 269 °C | CNC(=O)c1cc(-n2cnn(Cc3ccc(F)cc3)c2=O)n[nH]1 [Example 2.2, 3-(1-(4-Fluorobenzyl)-5-oxo-1H-1,2,4-triazol-4(5H)-yl)-N-methyl-1H-pyrazole-5-carboxamide] |
| 88 nM | 254 to 255 °C | Cc1cc(CNC(=O)c2cc(N3CCN(Cc4ccc(F)cc4)C3=O)n[nH]2)n[nH]1 [Example 4, 3-(3-(4-fluorobenzyl)-2-oxoimidazolidin-1-yl)-N-((5-methyl-1H-pyrazol-3-yl)methyl)-1H-pyrazole-5-carboxamide] |
| 65 nM | 262 to 263 °C | O=C(NCc1ccncc1)c1cc(-n2cnn(Cc3ccc(F)cc3)c2=O)n[nH]1 [Example 8.8, 3-(1-(4-fluorobenzyl)-5-oxo-1H-1,2,4-triazol-4(5H)-yl)-N-(pyridin-4-ylmethyl)-1H-pyrazole-5-carboxamide] |
| 37 nM | 294 to 296 °C (dec.) | Cc1cc(CNC(=O)c2cc(N3CCN(Cc4ccc(F)cc4)C3=O)n[nH]2)no1 [Example 5, 3-(3-(4-fluorobenzyl)-2-oxoimidazolidin-1-yl)-N-((5-methylisoxazol-3-yl)methyl)-1H-pyrazole-5-carboxamide] |
| 23 nM | 224 to 225 °C | O=C(NCc1ccccn1)c1cc(-n2cnn(Cc3ccc(F)cc3)c2=O)n[nH]1 [Example 8, 3-(1-(4-fluorobenzyl)-5-oxo-1H-1,2,4-triazol-4(5H)-yl)-N-(pyridin-2-ylmethyl)-1H-pyrazole-5-carboxamide] |
| 22 nM | 276 to 277 °C | Cc1cc(CNC(=O)c2cc(-n3cnn(Cc4ccc(F)cc4)c3=O)n[nH]2)no1 [Example 7, 3-(1-(4-fluorobenzyl)-5-oxo-1H-1,2,4-triazol-4(5H)-yl)-N-((5-methylisoxazol-3-yl)methyl)-1H-pyrazole-5-carboxamide] |
| 11 nM |  | O=C(NCc1ccccc1)c1cc(N2CCN(Cc3ccc(F)cc3)C2=O)n[nH]1 [Example 8.3, N-benzyl-3-(3-(4-fluorobenzyl)-2-oxoimidazolidin-1-yl)-1H-pyrazole-5-carboxamide] |
| 8 nM | 208 to 209 °C | O=C(NCc1ccc(F)c(F)c1)c1cc(-n2cnn(Cc3ccc(F)cc3)c2=O)n[nH]1 [Example 1, N-(3,4-difluorobenzyl)-3-(1-(4-fluorobenzyl)-5-oxo-1H-1,2,4-triazol-4(5H)-yl)-1H-pyrazole-5-carboxamide] |
| 8 nM | 272 to 274 °C | O=C(NCc1nccs1)c1cc(N2CCN(Cc3ccc(F)cc3)C2=O)n[nH]1 [Example 8.2, 3-(3-(4-fluorobenzyl)-2-oxoimidazolidin-1-yl)-N-(thiazol-2-ylmethyl)-1H-pyrazole-5-carboxamide] |
| 6 nM |  | O=C(NCc1ccccc1)c1cc(-n2cnn(Cc3ccc(F)cc3)c2=O)n[nH]1 [Example 2.1, N-benzyl-3-(1-(4-fluorobenzyl)-5-oxo-1H-1,2,4-triazol-4(5H)-yl)-1H-pyrazole-5-carboxamide] |
